The values below come from ChEMBL document CHEMBL1124997, “Mechanism and inhibition of cytochrome P-450 aromatase” (J Med Chem, 1990).

The target in series [1] is T1, Aromatase (Homo sapiens, UniProt P11511).
T1 sequence (P11511 whole entry): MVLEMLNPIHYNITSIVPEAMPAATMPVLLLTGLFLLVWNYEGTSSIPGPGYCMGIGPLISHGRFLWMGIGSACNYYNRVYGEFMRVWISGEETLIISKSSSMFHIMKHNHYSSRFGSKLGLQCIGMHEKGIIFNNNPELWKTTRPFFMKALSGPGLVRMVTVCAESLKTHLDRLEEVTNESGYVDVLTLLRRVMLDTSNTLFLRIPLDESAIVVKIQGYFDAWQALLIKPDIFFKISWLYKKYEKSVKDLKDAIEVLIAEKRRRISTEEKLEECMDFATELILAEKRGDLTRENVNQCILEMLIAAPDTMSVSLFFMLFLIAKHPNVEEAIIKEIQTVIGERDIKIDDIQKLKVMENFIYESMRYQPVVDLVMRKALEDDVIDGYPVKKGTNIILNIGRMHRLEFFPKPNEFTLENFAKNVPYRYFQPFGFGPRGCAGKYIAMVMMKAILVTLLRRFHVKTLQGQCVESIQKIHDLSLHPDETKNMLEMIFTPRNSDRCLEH

In series [2] the target is T1, Aromatase. Kind of series: (§1) Binding affinity for Cytochrome P450 19A1.
Series [3] deals with T1, Aromatase. Description: Time-dependent irreversible inactivation of human placental Cytochrome P450 19A1.
The target of series [4] is T2, Aromatase (Rattus norvegicus, UniProt P22443).
T2 sequence (P22443 whole entry): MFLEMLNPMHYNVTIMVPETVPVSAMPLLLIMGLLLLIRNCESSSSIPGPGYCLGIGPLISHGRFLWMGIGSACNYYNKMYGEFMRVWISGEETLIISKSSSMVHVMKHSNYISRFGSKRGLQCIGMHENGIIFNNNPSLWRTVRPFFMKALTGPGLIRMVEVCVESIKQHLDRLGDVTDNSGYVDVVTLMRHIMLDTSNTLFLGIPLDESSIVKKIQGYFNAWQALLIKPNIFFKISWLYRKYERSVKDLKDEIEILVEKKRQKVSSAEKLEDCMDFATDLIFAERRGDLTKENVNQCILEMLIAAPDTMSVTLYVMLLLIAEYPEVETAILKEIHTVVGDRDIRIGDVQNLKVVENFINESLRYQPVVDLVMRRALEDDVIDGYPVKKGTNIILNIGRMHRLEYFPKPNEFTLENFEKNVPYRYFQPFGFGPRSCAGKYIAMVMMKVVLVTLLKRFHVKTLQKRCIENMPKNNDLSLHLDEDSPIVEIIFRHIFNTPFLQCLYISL

The target of series [5] is T2, Aromatase. The series is described as §1.
Substrate in series [6]: C[C@]12CCC(=O)C=C1CC[C@@H]1[C@@H]2CC[C@]2(C)C(=O)CC[C@@H]12
The series is described as §1. The arrangement: species or system Homo sapiens.

Substrate in series [7]: C[C@]12CCC(=O)C=C1CCC1C2CC[C@@]2(C)C1C[C@@H](O)[C@@H]2O
The series is described as §1. Details: species or system Homo sapiens.

Substrate in series [8]: C[C@]12CC[C@H]3[C@@H](CCC4=CC(=O)CC[C@@]43C)[C@@H]1CC[C@@H]2O
Description: (§2) Km for Cytochrome P450 19A1.

Substrate in series [9]: C[C@]12CCC(=O)C=C1CC[C@@H]1[C@@H]2CC[C@]2(C)C(=O)CC[C@@H]12
Described as §2.

As to `CCC[C@]12CCC(=O)C=C1CCC1C2CC[C@]2(C)C(=O)CCC12` (stereo partly specified), in series [1], the affinity corresponds to a Ki of 3000 nM. In other words, the single-digit micromolar range.
The same measure, in the same setting: under `CC1(C)C[C@@]2(C)C(=CC1=O)CCC1C2CC[C@]2(C)C(=O)CCC12` (stereo partly specified) stands 2.3 nM; under `C[C@]12CCC3C(CCC4=CC(=O)CC[C@]43C3CS3)C1CCC2=O` (stereo partly specified), 1 nM.
With `Clc1ccc(COC(Cn2cccc2)c2ccc(Cl)cc2Cl)cc1` (stereo unspecified), the IC50 in [2] worked out at 30 nM.
Regarding `C[C@]12C=CC(=O)C=C1CCC1C2CC[C@]2(C)OC(=O)CCC12` (stereo partly specified), in series [1], the affinity corresponds to a Ki of 35000 nM.
On the same count and under the same terms, under `C[C@]12C=CC(=O)C=C1C=C[C@@H]1[C@@H]2CC[C@]2(C)C(=O)CC[C@@H]12` stands 180 nM.
Same read-out and setting: under `C[C@]12CCC(=O)C(N)=C1CCC1C2CC[C@]2(C)C(=O)CCC12` (stereo partly specified) stands 37 nM; under `C=C[C@]12CCC(=O)C=C1CCC1C2CC[C@]2(C)C(=O)CCC12` (stereo partly specified), 3 nM.
Regarding `C[C@]12CCC(=O)C=C1C[C@@H](Sc1ccc(N=[N+]=[N-])cc1)C1C2CC[C@]2(C)C(=O)CCC12` (stereo partly specified), in series [3], the kinact was 0.00166 s⁻¹.
Consider `C[C@]12CCC(=O)C=C1C[C@@H](Sc1ccc(I)cc1)C1C2CC[C@]2(C)C(=O)CCC12` (stereo partly specified), for which the inhibitory constant (Ki) in [1] stood at 12 nM.
Still for that read-out and setting: under `O=c1cc(-c2ccccc2)oc2c1ccc1ccc(O)cc12` stands 5 nM.
On to `Cn1nnc2ccc(C(c3ccc(Cl)cc3)n3cncn3)cc21` (stereo not drawn) [rac-VOROZOLE], for which inhibition in [4] was half-maximal at 3 nM (IC50). That is a single-digit nanomolar value.
On to `C[C@]12CCC(=O)C=C1[C@H](Br)CC1C2CC[C@@]2(C)C1CC[C@@H]2OC(=O)CBr` (stereo partly specified), for which, in series [3], the maximal inactivation rate constant (kinact) is 0.000457 s⁻¹. In [1], this molecule had a Ki of 25000 nM.
Take `C/C=C/[C@]12CCC(=O)C=C1CCC1C2CC[C@]2(C)C(=O)CCC12` (stereo partly specified): the inhibitory constant (Ki) in [1] stood at 56 nM. This counts as double-digit nanomolar.
For the molecule `C[C@]12CCC(=O)C=C1C[C@@H](Sc1ccc(NC(=O)CBr)cc1)C1C2CC[C@]2(C)C(=O)CCC12` (stereo partly specified), the kinact in series [3] was 0.00247 s⁻¹. The molecule also gave a Ki in [1] of 33000 nM.
In series [1], `C[C@]12CCC(=O)C(O)=C1CC[C@@H]1[C@@H]2CC[C@]2(C)C(=O)CC[C@@H]12` [FORMESTANE] yielded a Ki of 50 nM.
As for `C[C@]12CCC3C(CCC4=CC(=O)CC[C@@]43C3CS3)C1CCC2=O` (stereo partly specified), the Ki in series [1] is 75 nM.
In turn, `C=C1C=C2CCC3C(CC[C@]4(C)C(=O)CCC34)[C@@]2(C)CC1` (stereo partly specified) returned a Ki in series [1] of 4.7 nM.
In series [5], `Clc1ccc(C2c3ccc(Cl)cc3-c3ncncc32)cc1` (stereo unspecified) came in with a Ki of 24 nM.
On to `CSC[C@]12CCC(=O)C=C1CCC1C2CC[C@]2(C)C(=O)CCC12` (stereo partly specified), for which the Ki in [1] is 1 nM. In other words, the single-digit nanomolar range.
Molecule `C[C@]12CCC3C(CCC4=C(O)C(=O)CC[C@@]43C(F)F)C1CCC2=O` (stereo partly specified) displayed an IC50 in series [2] of 3300 nM.
With `C[C@]12CCC3C(CCC4=CC(=O)CC[C@@]43C(F)F)C1CCC2=O` (stereo partly specified), the kinact in series [3] is 0.000383 s⁻¹. In [1], this molecule displayed an inhibition constant Ki of 1 nM.
In the case of `CC[C@]12CCC(=O)C=C1CCC1C2CC[C@]2(C)C(=O)CCC12` (stereo partly specified), the Ki in series [1] was 9 nM.
Regarding `C[C@@]12CCCC1C1CCC3=CC(=O)C=C[C@]3(C)C1CC2` (stereo partly specified), the inhibition constant (Ki) in series [1] came to 1100 nM.

B1: Aromatase (Homo sapiens) (protein)
chain: T1 sequence (P11511 whole entry)
On to B1, for which the Km in series [6] worked out at 0.03 µM; in series [7], 58 µM; in series [8], 0.21 µM; in [9], 0.06 µM.
